In test [1] the test system is S. aureus Sa1 ATCC 13709. Description: microbe, parasite or virus in culture. It is filed as cell-based. The note with it: Staphylococcus aureus.
For test [2], the system named is S. aureus Sa26 ATCC 25923. The test can be described thus: Antibacterial activity assay (MIC), S. aureus Sa26. It is filed as cell-based. The note with it: Staphylococcus aureus.
The test system of test [3] is S. aureus Sa4 NCTC 6571. The test can be described thus: Antibacterial activity assay (MIC), S. aureus Sa4. As to conditions: Staphylococcus aureus. It is filed as cell-based.
Test [4] has as its system S. aureus Sa2 clinical strain NCIMB 41953, MRSA. Description: microbe, parasite or virus in culture. It is filed as cell-based. The note with it: Staphylococcus aureus, read-out: MIC Sa2.
Test [5] relates to H. influenza Hi3 ATCC 31517. The test can be described thus: organism not typed. It is filed as cell-based. As to conditions: read-out: MIC Hi3.
Test [6] concerns H. influenza Hi10 clinical strain. The test can be described thus: organism not typed. It is filed as cell-based. The note with it: read-out: MIC Hi10.
Test [7] relates to H. influenza Hi47 clinical strain, Ampicillin Resistant. Description: organism not typed. It is filed as cell-based. As to conditions: read-out: MIC Hi47.
The subject of test [8] is H. influenza Hi106 ATCC 51907. The test can be described thus: organism not typed. It is filed as cell-based. The note with it: read-out: MIC Hi106.
The test system of test [9] is E. coli Ec1 ATCC 25922. Description: Antibacterial activity assay (MIC), E. coli Ec1. It is filed as cell-based. The note with it: Escherichia coli.
Test [10] concerns E. coli Ec50 efflux pump KO. Description: microbe, parasite or virus in culture. As to conditions: Escherichia coli, read-out: MIC Ec50 efflux pump KO. It is filed as cell-based.
Test [11] relates to E. coli Ec113 efflux pump KO. Description: microbe, parasite or virus in culture. The note with it: Escherichia coli, read-out: MIC Ec113 efflux pump KO. It is filed as cell-based.
The target in test [12] is DNA Polymerase IIIα (DnaE) from Staphylococcus aureus (Staphylococcus aureus, UniProt Q6GG04). Description: biochemical.
Setting [13] is: ATCC13709, S. aureus Sa1 ATCC 13709, sensitive strain, Mueller-Hinton Broth, 37° C., read-out: MIC Sa1.
[14] abbreviates: ATCC25923, read-out: MIC Sa26 + 10% SH, S. aureus Sa26 + 10% SH.
The mark [15] stands for this setting: ATCC25923, read-out: MIC Sa26 + 50% SH, S. aureus Sa26 + 50% SH.
The mark [16] stands for this setting: ATCC25923, S. aureus Sa26 ATCC 25923, sensitive strain, Mueller-Hinton Broth, 37° C., read-out: MIC Sa26.
[17] abbreviates: NCTC6571, S. aureus Sa4 NCTC 6571, sensitive strain, read-out: MIC Sa4.
Setting [18] is: ATCC25922, E. coli Ec1 ATCC 25922, sensitive strain, read-out: MIC Ec1.
The mark [19] stands for this setting: DNA polymerase III, S. aureus, read-out: IC50 semiquantitative scoring, S. aureus.

Each structure is given as a SMILES string. pIC50: −log10 of the molar value. Values after ≈ are worked out from the molar mass of the structure shown. Like-named read-outs stand apart in the source and are kept apart here.

By pIC50 is commonly meant the IC50 on a negative log10 scale, so that one unit is a factor of ten.

Sequence of DNA Polymerase IIIα (DnaE) from Staphylococcus aureus (Q6GG04 1-1022): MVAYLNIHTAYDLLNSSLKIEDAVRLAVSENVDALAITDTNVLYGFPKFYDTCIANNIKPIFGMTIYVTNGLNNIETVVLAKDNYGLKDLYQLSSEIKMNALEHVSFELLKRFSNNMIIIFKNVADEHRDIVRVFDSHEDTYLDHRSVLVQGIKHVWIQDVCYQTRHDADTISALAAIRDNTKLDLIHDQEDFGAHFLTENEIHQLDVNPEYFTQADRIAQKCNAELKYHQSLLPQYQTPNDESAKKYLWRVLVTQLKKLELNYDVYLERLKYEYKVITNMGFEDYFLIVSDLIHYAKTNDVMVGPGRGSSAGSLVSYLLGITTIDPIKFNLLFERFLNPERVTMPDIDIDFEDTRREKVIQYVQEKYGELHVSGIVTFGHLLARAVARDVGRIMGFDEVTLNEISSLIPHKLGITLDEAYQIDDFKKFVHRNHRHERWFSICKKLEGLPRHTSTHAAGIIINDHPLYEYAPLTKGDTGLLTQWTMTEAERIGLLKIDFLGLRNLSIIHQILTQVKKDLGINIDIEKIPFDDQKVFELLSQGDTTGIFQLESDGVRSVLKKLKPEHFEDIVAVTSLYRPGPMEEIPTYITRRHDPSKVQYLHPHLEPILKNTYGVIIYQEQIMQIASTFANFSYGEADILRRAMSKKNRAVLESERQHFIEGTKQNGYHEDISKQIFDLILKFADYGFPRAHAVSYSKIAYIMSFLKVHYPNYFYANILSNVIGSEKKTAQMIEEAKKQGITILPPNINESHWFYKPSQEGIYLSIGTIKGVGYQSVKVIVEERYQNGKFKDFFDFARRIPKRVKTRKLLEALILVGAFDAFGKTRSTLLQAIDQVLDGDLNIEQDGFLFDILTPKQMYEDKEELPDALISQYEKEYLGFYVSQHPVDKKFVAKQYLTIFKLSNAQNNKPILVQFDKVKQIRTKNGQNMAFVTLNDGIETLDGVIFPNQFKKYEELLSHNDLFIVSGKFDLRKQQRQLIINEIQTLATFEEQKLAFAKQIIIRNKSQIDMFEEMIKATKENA

As for `COC/C(=N\OC)[C@H]1OC(=O)[C@H](COC)[C@H]2C=C[C@H]3[C@H]4O[C@]2(/C(C)=C/[C@H]1C)[C@@H]3[C@H](O)[C@@H](COC)[C@H]4OC(=O)c1ccc[nH]1` [Compound 27, 18-Deoxy-18-methoximino-8-O-1H-pyrrole-2′-carbonylbranimycin], the MIC amounted to 1 µg/mL (≈ 1.66 µM) in test [1] (ATCC13709, read-out: MIC Sa1); 1 µg/mL (≈ 1.66 µM) in [2] (ATCC25923, read-out: MIC Sa26); 2 µg/mL in test [2] (ATCC25923, read-out: MIC Sa26 + 10% SH); 4 µg/mL in test [2] (ATCC25923, read-out: MIC Sa26 + 50% SH); 1 µg/mL (≈ 1.66 µM) in test [3] (NCTC6571, read-out: MIC Sa4); 1 µg/mL (≈ 1.66 µM) in test [4]. Moreover, the MIC is more than 64 µg/mL in test [5]; more than 64 µg/mL in [6]; more than 64 µg/mL in test [7]; more than 64 µg/mL in test [8]; more than 64 µg/mL in test [9] (ATCC25922, read-out: MIC Ec1); more than 64 µg/mL in [10]. The MIC in test [11] turned out to be 4 µg/mL (≈ 6.64 µM). The negative-log IC50 (pIC50) in test [12] is 5.78 to 8.78.
On to `COCC(=NOC(C)=O)[C@H]1OC(=O)[C@H](COC)[C@H]2C=C[C@H]3[C@H]4O[C@]2(/C(C)=C/[C@H]1C)[C@@H]3[C@H](O)[C@@H](COC)[C@H]4OC(=O)c1ccc[nH]1` [Compound 29, 18-Acetylimino-18-deoxy-8-O-1H-pyrrole-2′-carbonylbranimycin], for which the MIC in test [1] (setting [13]) was found to be 0.5 µg/mL (≈ 0.793 µM); in test [2] (setting [14]), 1 µg/mL; in [2] (setting [15]) it was 2 µg/mL; in [2] (setting [16]), 1 µg/mL (≈ 1.59 µM); in test [3] (setting [17]) it was 0.5 µg/mL (≈ 0.793 µM); in test [4] it was 0.5 µg/mL (≈ 0.793 µM). In addition, the MIC in test [5] was more than 64 µg/mL; in [6], more than 64 µg/mL; in [7], 64 µg/mL (≈ 101 µM); in test [8], 64 µg/mL (≈ 101 µM); in test [9] (setting [18]), more than 64 µg/mL; in test [10] it was 32 µg/mL (≈ 50.7 µM). Moreover, the MIC in test [11] is 0.5 µg/mL (≈ 0.793 µM). The negative-log IC50 (pIC50) in [12] was 5.80 to 8.80.
As to `COC[C@@H]1[C@@H](O)[C@@H]2[C@H]3C=C[C@@H]4[C@@H](COC)C(=O)O[C@H]([C@H](O)COC)[C@H](C)/C=C(\C)[C@@]24O[C@H]3[C@@H]1OC(=O)c1cc(Br)c[nH]1` [Compound 32, 8-O-4-Bromo-1H-pyrrole-2′-carbonylbranimycin], the MIC in test [1] (setting [13]) was found to be 4 µg/mL (≈ 6.11 µM); in [2] (setting [14]), 16 µg/mL; in test [2] (setting [15]), 64 µg/mL; in [2] (setting [16]), 16 µg/mL (≈ 24.4 µM); in [3] (setting [17]) it was 8 µg/mL (≈ 12.2 µM); in test [4], 4 µg/mL (≈ 6.11 µM). For the same compound, the MIC in [5], in [6], in [7], in test [8], in test [9] (setting [18]) and in test [10] was more than 64 µg/mL in each case. In addition, the MIC in test [11] amounted to 64 µg/mL (≈ 97.8 µM). In [12], this compound had a negative-log IC50 (pIC50) of 5.82 to 8.82.
Regarding `COC[C@@H]1[C@@H](O)[C@@H]2[C@H]3C=C[C@@H]4[C@@H](COC)C(=O)O[C@H]([C@H](O)COC)[C@H](C)/C=C(\C)[C@@]24O[C@H]3[C@@H]1OC(=O)c1cc(Br)c(Br)[nH]1` [Compound 34, 8-O-4,5-Dibromo-1H-pyrrole-2′-carbonylbranimycin], the MIC is 64 µg/mL (≈ 87.3 µM) in test [1] (setting [13]); more than 64 µg/mL in test [2] (setting [14]); more than 64 µg/mL in test [2] (setting [15]); 64 µg/mL (≈ 87.3 µM) in test [2] (setting [16]); 32 µg/mL (≈ 43.6 µM) in test [3] (setting [17]); 64 µg/mL (≈ 87.3 µM) in test [4]. For the same compound, the MIC in test [5] is more than 64 µg/mL; in test [6] it was more than 64 µg/mL; in test [7], 16 µg/mL (≈ 21.8 µM); in test [8] it was more than 64 µg/mL; in [9] (setting [18]), more than 64 µg/mL; in [10] it was more than 64 µg/mL. Also, in test [11], the MIC came to 64 µg/mL (≈ 87.3 µM). Also, the pIC50 in test [12] (setting [19]) is 4.87 to 5.87.
In the case of `COC[C@@H]1[C@@H](O)[C@@H]2[C@H]3C=C[C@@H]4[C@@H](COC)C(=O)O[C@H]([C@H](O)COC)[C@H](C)/C=C(\C)[C@@]24O[C@H]3[C@@H]1OC(=O)c1cc(Br)c(Br)o1` [Compound 36, 8-O-4,5-Dibromofurane-2′-carbonylbranimycin], the MIC in [1] (setting [13]) was 64 µg/mL (≈ 87.1 µM); in test [2] (setting [14]) it was more than 64 µg/mL; in test [2] (setting [15]), more than 64 µg/mL; in [2] (setting [16]), more than 64 µg/mL; in test [3] (setting [17]) it was 32 µg/mL (≈ 43.6 µM); in test [4], 64 µg/mL (≈ 87.1 µM). Besides, the MIC in [5], in [6], in test [7], in [8], in [9] (setting [18]) and in test [10] was more than 64 µg/mL throughout. Further, in test [11], the MIC came out at 64 µg/mL (≈ 87.1 µM). Also, in test [12] (setting [19]), the negative-log IC50 (pIC50) was 5.87 to 8.87.
With `COC[C@@H]1[C@@H](O)[C@@H]2[C@H]3C=C[C@@H]4[C@@H](COC)C(=O)O[C@H]([C@H](O)COC)[C@H](C)/C=C(\C)[C@@]24O[C@H]3[C@@H]1OC(=O)c1cc(Br)c(F)[nH]1` [Compound 37, 8-O-4-Bromo-5-Fluoro-1H-pyrrole-2′-carbonylbranimycin], the MIC was more than 64 µg/mL in [1] (setting [13]); more than 64 µg/mL in [2] (setting [14]); more than 64 µg/mL in test [2] (setting [15]); 64 µg/mL (≈ 95.2 µM) in [2] (setting [16]); 64 µg/mL (≈ 95.2 µM) in test [3] (setting [17]); 64 µg/mL (≈ 95.2 µM) in [4]. Also, the MIC in [5], in test [6], in test [7], in test [8], in [9] (setting [18]) and in test [10] was more than 64 µg/mL each time. Further, the MIC in test [11] came to 16 µg/mL (≈ 23.8 µM). The negative-log IC50 (pIC50) in [12] (setting [19]) is 5.83 to 8.83.
Turning to `COC[C@@H]1[C@@H](O)[C@@H]2[C@H]3C=C[C@@H]4[C@@H](COC)C(=O)O[C@H]([C@H](O)COC)[C@H](C)/C=C(\C)[C@@]24O[C@H]3[C@@H]1OC(=O)c1cc(C)n[nH]1` [Compound 39, 8-O-5-Methyl-1H-Pyrazole-3′-carbonylbranimycin], the MIC in test [1] (setting [13]), in test [2] (setting [14]), in test [2] (setting [15]), in test [2] (setting [16]), in [3] (setting [17]) and in test [4] was more than 64 µg/mL each time. For the same compound, the MIC in test [5], in test [6], in test [7], in test [8], in test [9] (setting [18]) and in test [10] was more than 64 µg/mL each time. The MIC in test [11] was more than 64 µg/mL. Besides, in [12], the negative-log IC50 (pIC50) was 4.77 to 5.77.
Consider `COCC(=NO)[C@H]1OC(=O)[C@H](COC)[C@H]2C=C[C@H]3[C@H]4O[C@]2(/C(C)=C/[C@H]1C)[C@@H]3[C@H](O)[C@@H](COC)[C@H]4OC(=O)c1cc(Cl)c[nH]1` [Compound 41, 18-Deoxy-18-oximino-8-O-4-Chloro-1H-pyrrole-2′-carbonylbranimycin], for which the MIC was 4 µg/mL (≈ 6.42 µM) in [1] (setting [13]); 4 µg/mL in [2] (setting [14]); 32 µg/mL in [2] (setting [15]); 2 µg/mL (≈ 3.21 µM) in [2] (setting [16]); 2 µg/mL (≈ 3.21 µM) in [3] (setting [17]); more than 64 µg/mL in test [5]. In addition, the MIC in [6] was more than 64 µg/mL; in test [7], more than 64 µg/mL; in [8], more than 64 µg/mL; in test [9] (setting [18]), more than 64 µg/mL; in test [10], 64 µg/mL (≈ 103 µM); in test [11], 2 µg/mL (≈ 3.21 µM). In [12], this compound had a pIC50 of 5.79 to 8.79.

(Values after patent US20160297830A1, “NOVEL COMPOUNDS USEFUL FOR THE TREATMENT OF BACTERIAL INFECTIOUS DISEASES” (GALAPAGOS NV, priority 2013, published 2016).)
